Biological target: T1, […]F508-CFTR (Homo sapiens, UniProt P13569, DEL508-508)
T1 construct: expressed in transfected cells
Assay: Assay results of Table 3: ΔF508-CFTR modulation, membrane potential optical assay (assay format not stated)
Format: cell-based
Conditions: NIH3T3 mouse fibroblasts stably expressing […]F508-CFTR (optical assays); for Efficacy: efficacy range; for EC50: potency range
From the text: A. Membrane Potential Optical Methods for Assaying […]F508-CFTR Modulation Properties of Compounds
The optical membrane potential assay utilized voltage-sensitive FRET sensors described by Gonzalez and Tsien (See, Gonzalez, J. E. and R. Y. Tsien (1995) “Voltage sensing by fluorescence resonance energy transfer in single cells” Biophys J 69(4): 1272-80, and Gonzalez, J. E. and R. Y. Tsien (1997) “Improved indicators of cell membrane potential that use fluorescence resonance energy transfer” Chem Biol 4(4): 269-77) in combination with instrumentation for measuring fluorescence changes such as the Voltage/Ion Probe Reader (VIPR) (See, Gonzalez, J. E., K. Oades, et al. (1999) “Cell-based assays and instrumentation for screening ion-channel targets” Drug Discov Today 4(9): 431-439).
These voltage sensitive assays are based on the change in fluorescence resonant energy transfer (FRET) between the membrane-soluble, voltage-sensitive dye, DiSBAC2(3), and a fluorescent phospholipid, CC2-DMPE, which is attached to the outer leaflet of the plasma membrane and acts as a FRET donor. Changes in membrane potential (Vm) cause the negatively charged DiSBAC2(3) to redistribute across the plasma membrane and the amount of energy transfer from CC2-DMPE changes accordingly. The changes in fluorescence emission were monitored using VIPR™ II, which is an integrated liquid handler and fluorescent detector designed to conduct cell-based screens in 96- or 384-well microtiter plates.
To identify small molecules that correct the trafficking defect associated with ΔF508-CFTR; a single-addition HTS assay format was developed. The cells were incubated in serum-free medium for 16 hrs at 37° C. in the presence or absence (negative control) of test compound. As a positive control, cells plated in 384-well plates were incubated for 16 hrs at 27° C. to “temperature-correct” […]F508-CFTR. The cells were subsequently rinsed 3× with Krebs Ringers solution and loaded with the voltage-sensitive dyes. To activate […]F508-CFTR, 10 µM forskolin and the CFTR potentiator, genistein (20 µM), were added along with Cl^−-free medium to each well. The addition of Cl^−-free medium promoted Cl^− efflux in response to […]F508-CFTR activation and the resulting membrane depolarization was optically monitored using the FRET-based voltage-sensor dyes.
To identify potentiators of […]F508-CFTR, a double-addition HTS assay format was developed. During the first addition, a Cl^−-free medium with or without test compound was added to each well. After 22 sec, a second addition of Cl^−-free medium containing 2-10 µM forskolin was added to activate […]F508-CFTR. The extracellular Cl^− concentration following both additions was 28 mM, which promoted Cl^− efflux in response to […]F508-CFTR activation and the resulting membrane depolarization was optically monitored using the FRET-based voltage-sensor dyes.
Bath Solution #1: (in mM) NaCl 160, KCl 4.5, CaCl2 2, MgCl2 1, HEPES 10, pH 7.4 with NaOH.
Chloride-free bath solution: Chloride salts in Bath Solution #1 are substituted with gluconate salts.
CC2-DMPE: Prepared as a 10 mM stock solution in DMSO and stored at −20° C.
DiSBAC2(3): Prepared as a 10 mM stock in DMSO and stored at −20° C.
NIH3T3 mouse fibroblasts stably expressing […]F508-CFTR are used for optical measurements of membrane potential. The cells are maintained at 37° C. in 5% CO2 and 90% humidity in Dulbecco's modified Eagle's medium supplemented with 2 mM glutamine, 10% fetal bovine serum, 1× NEAA, […]-ME, 1× pen/strep, and 25 mM HEPES in 175 cm^2 culture flasks. For all optical assays, the cells were seeded at 30,000/well in 384-well matrigel-coated plates and cultured for 2 hrs at 37° C. before culturing at 27° C. for 24 hrs for the potentiator assay. For the correction assays, the cells are cultured at 27° C. or 37° C. with and without compounds for 16-24 hoursB.

T1 sequence (P13569 with tags, fused parts or gaps DEL508-508): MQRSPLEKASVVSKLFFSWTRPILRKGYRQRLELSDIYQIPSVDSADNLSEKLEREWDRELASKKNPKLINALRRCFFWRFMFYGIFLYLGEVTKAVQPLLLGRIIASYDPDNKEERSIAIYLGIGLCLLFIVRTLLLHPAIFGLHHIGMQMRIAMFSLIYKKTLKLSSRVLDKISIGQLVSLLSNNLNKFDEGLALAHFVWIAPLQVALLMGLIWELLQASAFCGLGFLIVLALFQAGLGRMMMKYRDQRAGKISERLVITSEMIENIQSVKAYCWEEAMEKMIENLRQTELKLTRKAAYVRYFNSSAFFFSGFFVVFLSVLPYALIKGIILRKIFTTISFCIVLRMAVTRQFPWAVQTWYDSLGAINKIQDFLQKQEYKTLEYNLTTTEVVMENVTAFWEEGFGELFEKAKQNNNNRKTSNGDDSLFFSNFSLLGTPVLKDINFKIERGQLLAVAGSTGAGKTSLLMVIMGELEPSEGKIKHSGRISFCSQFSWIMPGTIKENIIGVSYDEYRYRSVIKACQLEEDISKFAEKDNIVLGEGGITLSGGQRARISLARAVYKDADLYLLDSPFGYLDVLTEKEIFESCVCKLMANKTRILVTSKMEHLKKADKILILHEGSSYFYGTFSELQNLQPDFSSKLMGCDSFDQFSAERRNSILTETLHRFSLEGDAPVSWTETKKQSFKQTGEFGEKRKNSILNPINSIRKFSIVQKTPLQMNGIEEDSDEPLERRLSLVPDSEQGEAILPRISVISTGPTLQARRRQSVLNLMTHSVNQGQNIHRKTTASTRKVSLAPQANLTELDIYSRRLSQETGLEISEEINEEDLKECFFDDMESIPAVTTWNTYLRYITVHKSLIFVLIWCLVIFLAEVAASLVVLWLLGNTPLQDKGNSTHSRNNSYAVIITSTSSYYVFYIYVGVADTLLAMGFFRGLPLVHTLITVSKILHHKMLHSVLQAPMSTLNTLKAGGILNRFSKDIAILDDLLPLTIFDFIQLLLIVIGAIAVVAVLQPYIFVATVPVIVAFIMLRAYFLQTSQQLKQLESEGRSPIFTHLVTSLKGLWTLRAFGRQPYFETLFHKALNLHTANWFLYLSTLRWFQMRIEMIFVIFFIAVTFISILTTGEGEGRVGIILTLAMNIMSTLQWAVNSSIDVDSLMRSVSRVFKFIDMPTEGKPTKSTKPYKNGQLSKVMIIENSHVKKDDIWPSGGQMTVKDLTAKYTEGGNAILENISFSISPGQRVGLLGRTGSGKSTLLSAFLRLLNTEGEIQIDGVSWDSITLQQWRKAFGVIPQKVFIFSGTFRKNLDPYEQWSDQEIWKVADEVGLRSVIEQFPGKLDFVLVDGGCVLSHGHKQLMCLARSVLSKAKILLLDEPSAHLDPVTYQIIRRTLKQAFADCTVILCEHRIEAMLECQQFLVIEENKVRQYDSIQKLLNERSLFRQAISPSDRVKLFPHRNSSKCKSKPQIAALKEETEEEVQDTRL

| Structure (SMILES) | EC50 | Efficacy |
| --- | --- | --- |
| CC(=O)C1(c2ccccc2)CCN(c2nc(C(N)=O)cc(-c3ccccc3)n2)CC1 [Compound 45] | 1 to 5 µM | ++ (++ corresponds to Efficacy between 100 and 50) |
| NC(=O)c1cc(-c2ccccc2)nc(N2CC=CCC2)n1 [Compound 46] | 1 to 5 µM | +++ (+++ corresponds to Efficacy greater than 100) |
| COc1cc2c(cc1OC)CN(c1nc(C(N)=O)cc(-c3ccccc3)n1)CC2 [Compound 49] | > 5 µM | ++ (++ corresponds to Efficacy between 100 and 50) |
| CCCCN(Cc1ccccc1)c1nc(C(N)=O)cc(-c2ccccc2)n1 [Compound 52] | 1 to 5 µM | ++ (++ corresponds to Efficacy between 100 and 50) |
| NC(=O)c1cc(-c2ccccc2)nc(N2CC=C(c3ccccc3)CC2)n1 [Compound 53] | > 5 µM | ++ (++ corresponds to Efficacy between 100 and 50) |
| CCN(CC)c1nc(C(N)=O)cc(-c2cccc(C)c2)n1 [Compound 56] | 1 to 5 µM | +++ (+++ corresponds to Efficacy greater than 100) |
| NC(=O)c1cc(-c2ccccc2)nc(-n2cccn2)n1 [Compound 57] | > 5 µM | + (+ corresponds to Efficacy less than 50) |
| CCN(CC)c1nc(C(N)=O)cc(-c2ccccc2C)n1 [Compound 61] | 1 to 5 µM | ++ (++ corresponds to Efficacy between 100 and 50) |
| CN(CCc1c[nH]c2ccccc12)c1nc(C(N)=O)cc(-c2ccccc2)n1 [Compound 63] | 1 to 5 µM | ++ (++ corresponds to Efficacy between 100 and 50) |
| CCN(CC)c1nc(C(N)=O)cc(-c2cc(C)cs2)n1 [Compound 66] | < 1 µM | +++ (+++ corresponds to Efficacy greater than 100) |
| CCN(CC)c1nc(C(N)=O)cc(-c2ccc(F)cc2)n1 [Compound 67] | 1 to 5 µM | +++ (+++ corresponds to Efficacy greater than 100) |
| C=CCN(CC=C)c1nc(C(N)=O)cc(-c2ccccc2)n1 [Compound 69] | 1 to 5 µM | +++ (+++ corresponds to Efficacy greater than 100) |
| CCCC1CCN(c2nc(C(N)=O)cc(-c3ccccc3)n2)CC1 [Compound 73] | 1 to 5 µM | + (+ corresponds to Efficacy less than 50) |
| CCN(CC)c1nc(C(N)=O)cc(-c2cccc(C(F)(F)F)c2)n1 [Compound 75] | < 1 µM | ++ (++ corresponds to Efficacy between 100 and 50) |
| COc1cccc(-c2cc(C(N)=O)nc(N(C)C)n2)c1 [Compound 77] | > 5 µM | + (+ corresponds to Efficacy less than 50) |
| COc1ccc(-c2cc(C(N)=O)nc(N3CCCCCC3)n2)cc1 [Compound 78] | 1 to 5 µM | ++ (++ corresponds to Efficacy between 100 and 50) |
| NC(=O)c1cc(-c2ccccc2)nc(N2CC=CC2)n1 [Compound 79] | 1 to 5 µM | +++ (+++ corresponds to Efficacy greater than 100) |
| COc1cccc(-c2cc(C(N)=O)nc(NCC3CCCO3)n2)c1 (centres unmarked) [Compound 80] | > 5 µM | + (+ corresponds to Efficacy less than 50) |
| CCN(CC)c1nc(C(N)=O)cc(-c2ccc(OC)c(OC)c2)n1 [Compound 82] | < 1 µM | ++ (++ corresponds to Efficacy between 100 and 50) |
| NC(=O)c1cc(-c2ccccc2)nc(N2CCCCCCC2)n1 [Compound 86] | < 1 µM | ++ (++ corresponds to Efficacy between 100 and 50) |
| CCCN(CC1CC1)c1nc(C(N)=O)cc(-c2ccccc2)n1 [Compound 87] | 1 to 5 µM | ++ (++ corresponds to Efficacy between 100 and 50) |

Continued, in another order:

| EC50 | Structure (SMILES) | Efficacy |
| --- | --- | --- |
| 1 to 5 µM | CCN(CC)c1nc(C(=O)NC)cc(-c2ccccc2)n1 [Compound 47] | +++ (+++ corresponds to Efficacy greater than 100) |
| > 5 µM | C=CCNc1nc(C(N)=O)cc(-c2cccc(OC)c2)n1 [Compound 48] | ++ (++ corresponds to Efficacy between 100 and 50) |
| < 1 µM | CCN(Cc1ccccc1)c1nc(C(N)=O)cc(-c2ccccc2)n1 [Compound 50] | +++ (+++ corresponds to Efficacy greater than 100) |
| > 5 µM | CC(C)CNc1nc(C(N)=O)cc(-c2ccccc2)n1 [Compound 51] | ++ (++ corresponds to Efficacy between 100 and 50) |
| 1 to 5 µM | NC(=O)c1cc(-c2ccccc2)nc(N2CCc3ccccc3C2)n1 [Compound 54] | ++ (++ corresponds to Efficacy between 100 and 50) |
| < 1 µM | CCN(CC)c1nc(C(N)=O)cc(-c2ccc(C(C)C)cc2)n1 [Compound 55] | ++ (++ corresponds to Efficacy between 100 and 50) |
| > 5 µM | NC(=O)c1cc(-c2ccccc2)nc(-n2ccnc2)n1 [Compound 58] | + (+ corresponds to Efficacy less than 50) |
| 1 to 5 µM | CCOC(=O)C1CCCN(c2nc(C(N)=O)cc(-c3ccccc3)n2)C1 (centres unmarked) [Compound 59] | + (+ corresponds to Efficacy less than 50) |
| > 5 µM | NC(=O)c1cc(-c2ccccc2)nc(N2CCC(C(=O)c3ccc(F)cc3)CC2)n1 [Compound 60] | ++ (++ corresponds to Efficacy between 100 and 50) |
| > 5 µM | CCN(CC)c1nc(C(N)=O)cc(-c2cccc(NC(C)=O)c2)n1 [Compound 62] | ++ (++ corresponds to Efficacy between 100 and 50) |
| > 5 µM | COc1ccc(-c2cc(C(N)=O)nc(N3CCCCC3)n2)c(OC)c1 [Compound 65] | ++ (++ corresponds to Efficacy between 100 and 50) |
| 1 to 5 µM | NC(=O)c1cc(-c2ccccc2)nc(N2CCCCCC2)n1 [Compound 68] | ++ (++ corresponds to Efficacy between 100 and 50) |
| 1 to 5 µM | Cc1csc(-c2cc(C(N)=O)nc(N3CCCCC3)n2)c1 [Compound 70] | + (+ corresponds to Efficacy less than 50) |
| > 5 µM | CC(C)(C)Nc1nc(C(N)=O)cc(-c2ccccc2)n1 [Compound 71] | ++ (++ corresponds to Efficacy between 100 and 50) |
| 1 to 5 µM | NC(=O)c1cc(-c2ccccc2C(F)(F)F)nc(N2CCCCC2)n1 [Compound 72] | ++ (++ corresponds to Efficacy between 100 and 50) |
| 1 to 5 µM | CCN(CC)c1nc(C(N)=O)cc(-c2cccc(OC)c2)n1 [Compound 74] | +++ (+++ corresponds to Efficacy greater than 100) |
| < 1 µM | CCN(CC)c1nc(C(N)=O)cc(-c2cc(C(C)C)ccc2OC)n1 [Compound 76] | +++ (+++ corresponds to Efficacy greater than 100) |
| 1 to 5 µM | CCN(CC)c1nc(C(N)=O)cc(-c2cc3ccccc3s2)n1 [Compound 81] | +++ (+++ corresponds to Efficacy greater than 100) |
| > 5 µM | CN(CC#N)c1nc(C(N)=O)cc(-c2ccccc2)n1 [Compound 83] | + (+ corresponds to Efficacy less than 50) |
| < 1 µM | CCN(CC)c1nc(C(N)=O)cc(-c2cccc(OC(F)(F)F)c2)n1 [Compound 84] | ++ (++ corresponds to Efficacy between 100 and 50) |
| < 1 µM | CCN(CC)c1nc(C(N)=O)cc(-c2cccc(C(=O)OC(C)C)c2)n1 [Compound 85] | ++ (++ corresponds to Efficacy between 100 and 50) |
| > 5 µM | COCCCNc1nc(C(N)=O)cc(-c2cccc(OC)c2)n1 [Compound 88] | + (+ corresponds to Efficacy less than 50) |

— patent US8822451B2, “Modulators of ATP-binding cassette transporters” (Vertex Pharmaceuticals Incorporated, priority 2005, dated 2014)
